Source: US20120269725A1, “TARGETED RADIOLABELED COMPOUNDS AND THEIR USE FOR THE TREATMENT AND DIAGNOSIS OF CANCER” (priority 2009, published 2012)
Read-outs that look alike come from different tables or passages of the source.

Legend:
human BChE = human BChE (Homo sapiens, UniProt P06276); assay: UV-based BChE inhibition (IC50) assay; format: biochemical; details: non-radioactive compounds, 30 min preincubation, room temperature, pH 7.0
Protocol: Assays employed to determine IC50 were developed by the present inventors and utilized UV based detection. For UV-based assays, a BChE solution in 0.1 M potassium phosphate, pH 7.0 was placed in the desired numbers of wells of a 96-well plate (0.05 mL/well). The investigated compound was diluted in DMSO to produce concentrations from 0 to 10 μM in DMSO and 0.002 mL/well of these dilutions was added to BChE-containing wells. Reaction mixtures were incubated at room temperature for 30 min. The reagent consisting of BChE substrate, 1 mM (2-mercaptoethyl)trimethylammonium iodide butyrate, and 0.5 mM 5,5′-dithio-bis(2-nitrobenzoic acid) in 0.1 M potassium phosphate, pH 7.0 (prepared fresh for each assay) was added, 0.25 mL per well. The mixture was incubated at room temperature and the OD at λ=405 nm was read at 1, 2, 3, 4, 5, 10, and 15 min after the addition of this reagent using the Opsys MR™plate reader (Dynex Technologies, Chantilly, Va.). Data were analyzed using the IC50 nonlinear regression function provided by GraphPad Prism (GraphPad Software, La Jolla, Calif.).
The compound binding of several non-radioactive compounds of the method of the invention were analyzed by the aforementioned human BChE compound binding study to determine their affinity for the therapeutic target (Table 1).

[1] = test system: subcutaneous LS174T tumors (human colorectal adenocarcinoma); assay: Biodistribution, clearance and planar imaging in athymic mice bearing subcutaneous LS174T xenografts; format: in vivo, athymic NCr-nu/nu mice
Protocol: The in vivo properties and pharmacology of several compounds of the present invention were initially tested in athymic mice bearing subcutaneous LS174T tumors (human colorectal adenocarcinoma), which have several desirable properties such as rapid growth when implanted subcutaneously (SQ), good vascularization and the availability of considerable historical data for the parent compound IUdR. The clearance rates from blood, tumor, and associated organs were analyzed to determine the structure-pharmacokinetics relationship. The first compounds studied were 6b-fast and 6b-slow. Four-to-six-weeks old female athymic NCr-nu/nu mice (NCI-Frederic, Md., USA) were allowed to acclimate in Applicants' facility after delivery for no less than 5 days. All protocols involving animals were approved by the University of Nebraska Institutional Animal Care and Use Committee. Mice were housed in microisolator cages with free access to sterilized standard rodent diet and water. LS174T cells in 0.1 mL of serum-free medium were implanted SQ at 5×10^6 cells/mouse. One week later identification transponders were implanted, also SQ. Body weights and tumor sizes were monitored twice weekly, and approximately 10 days after the cell implant, mice were randomized for biodistribution studies.
Each of the two isomers, 6b-fast and 6b-slow, was tested independently in separate groups of mice. The comparison to the parent compound, IUdR, was made by co-injecting ^131IUdR with a particular ^125I-labeled diastereomer. Compounds were administered intravenously (IV) via a tail vein.
Biodistribution was conducted at 1 h, 4 h, 24 and 48 h after the administration of radiolabeled compounds (n=6 per time point). The injection doses contained approximately 1 μCi (37 kBq) ^131IUdR and 5 μCi (185 kBq) ^125I-labeled 6b-fast or 6b-slow dissolved in 0.2 mL phosphate buffered saline containing 0.1% bovine serum albumin, pH 7.2 (PBS). All syringes were weighted after loading with the compound solution and immediately after the injection to determine the weight of the injected dose. Triplicate standards of the injected dose were prepared in PBS and counted in a gamma counter just before the beginning of the experiment. The radioactive content of these standards was also determined alongside all tissues after the necropsy to correct the tissue uptake for the decay of the radioisotope. Blood, liver, spleen, heart, lungs, kidneys, brain, tumor and tail were collected during necropsy. Tissues were rinsed in ice-cold saline, patted dry and weighed. The tail was collected to validate the quality of the IV injections.
FIG. 7 presents whole body images for a typical time course distribution (24 h, 48 h, and 72 h) of 6b administered as a diastereomeric mixture in LS174T-bearing athymic mice. The images were acquired 1, 2, and 3 days after the administration of the compound. […] It is also apparent that based on pharmacokinetics, the use of these compounds can be tailored to a specific malignancy and its anatomical location.

IP OVCAR-3 tumors = assay: Pilot therapy of IP OVCAR-3 tumors in athymic mice; format: in vivo; details: for whole body retention, median / whole body retention: after 14 days; for whole body retention: value with spread in brackets
Description: In pilot therapy experiments, the effects of unmodified ^125IUdR on the growth of IP OVCAR-3 tumors were compared to the therapeutic effects of the 6b diastereomeric mixture and 7b diastereomeric mixture. The tumor model used in this study, OVCAR-3 cell line, was established from the malignant ascites of a patient with progressive adenocarcinoma of the ovary after many types of chemotherapy including cyclophosphamide, adriamycin, and cisplatin. OVCAR-3 is resistant in vitro to clinically relevant concentrations of adriamycin, melphalan, and cisplatin (Hamilton T C, Young R C, Louie K G, Behrens B C, McKoy W M, Grotzinger K R, Ozols R F. Characterization of a xenograft model of human ovarian carcinoma which produces ascites and intraabdominal carcinomatosis in mice. Cancer Res. 1984; 44:5286-90.). In immunodeficient mice, IP injected OVCAR-3 cells produce malignant ascites, peritoneal carcinomatosis, and serosal and visceral seeding that, if left untreated, leads to death from respiratory compromise, hemorrhage from invasion of intra-abdominal blood vessels, and bowel obstruction. Substantial literature data (nearly 100 publications) confirm that this tumor model has pathogenesis and metastatic properties similar to those of human ovarian cancer.
Mice received IP implants of approximately 2.4×10^8 OVCAR-3 cells/mouse isolated from fresh OVCAR-3 mouse ascites. Cell viability was measured before and after injection, and was ≧90%. Four days after tumor cells were implanted, the mice received SQ transponders and were randomized via a lottery into four groups: NT—untreated controls that received IP injection of PBS; 7b group—receiving IP doses of the 7b diastereomeric mixture in PBS (average 0.4 mCi/mouse (14.8 MBq)); 6b group—receiving IP doses of the 6b diastereomeric mixture in PBS (average dose 0.36 mCi/mouse (13.3 MBq)); and ^125IUdR group—receiving IP doses of ^125IUdR (average 0.43 mCi/mouse (15.9 MBq)) in PBS. Mice were monitored three times per week.
Mice in the 6b group received 0.22 mCi (8.1 MBq) 6b diastereomeric mixture on day 27; and on day 28 mice in ^125IUdR group were treated with additional 0.2 mCi (7.4 MBq) ^125IUdR. Slight differences in the dosing schedule and the administered doses are because of the required large quantities of the compounds. For these experiments, ˜20 mCi of no-carrier added and radiochemically pure compounds were required. Each agent was purified on the analytical reversed phase HPLC column. The use of preparative columns in this case is impractical because the products are recovered in large volumes of acetonitrile-containing solvent that must be evaporated to dryness before the use in mice.
Overall, mice in the 7b group were treated with an average of 0.58 mCi (21.5 MBq) 7b diastereomeric mixture; mice in the 6b group were treated with an average of 0.58 mCi (21.5 MBq) 6b diastereomeric mixture, and mice in the ^125IUdR group were treated with an average of 0.63 mCi (23.3 MBq) ^125IUdR.
The therapy was terminated 7 weeks after the first dosing. Mice were sacrificed for the biodistribution study. Blood and solid tumor were taken for the evaluation of their radioactive content. The peritoneal cavity was lavaged with 2-mL aliquots of PBS, and PBS wash and ascites were collected. One mL of the ascites suspension with cancer cells was taken for gamma counting. The rest of the abdominal fluid was centrifuged and 0.5 mL of the supernatant was reserved for gamma counting. The weight of the cell pellet and the supernatant were determined.
Two weeks after the first dose of radiolabeled compounds, the whole body radioactivity was measured to determine to what extent the additional doses of the compounds may increase the radiation burden and therefore may be detrimental to the animal health (FIG. 11B). The absolute amounts were low and ranged from […] for the 6b group to […] in the 7b group. […]

Sequence of human BChE (P06276 29-602): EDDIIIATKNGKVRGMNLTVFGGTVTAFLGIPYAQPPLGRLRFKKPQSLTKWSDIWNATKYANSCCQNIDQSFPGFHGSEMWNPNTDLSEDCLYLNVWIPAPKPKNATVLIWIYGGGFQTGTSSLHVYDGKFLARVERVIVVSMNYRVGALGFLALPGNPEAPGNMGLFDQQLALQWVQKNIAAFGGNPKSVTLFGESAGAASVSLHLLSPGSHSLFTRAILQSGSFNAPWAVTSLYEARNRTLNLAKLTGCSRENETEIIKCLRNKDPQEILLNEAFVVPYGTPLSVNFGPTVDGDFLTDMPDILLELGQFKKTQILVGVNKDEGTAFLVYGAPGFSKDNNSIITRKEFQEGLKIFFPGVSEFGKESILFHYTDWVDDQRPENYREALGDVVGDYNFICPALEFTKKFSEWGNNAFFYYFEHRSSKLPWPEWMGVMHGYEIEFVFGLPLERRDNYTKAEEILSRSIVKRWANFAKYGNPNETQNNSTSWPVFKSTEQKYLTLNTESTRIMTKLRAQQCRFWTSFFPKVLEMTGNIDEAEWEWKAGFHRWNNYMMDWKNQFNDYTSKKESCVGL

SMILES	IC50 (human BChE; IC50 (nM))	also measured
Cc1cn(C2CC(F)C(COP3(=O)OCc4c(F)c(C(C)(C)C)cc(C(C)(C)C)c4O3)O2)c(=O)[nH]c1=O (single isomer, unassigned) [23 - slow, 5′-O-[cyclo-3,5-Di-(tert-butyl)-6-fluoroSaligenyl]-3′-deoxy-3′-fluorothymidine Monophosphate]	42.6 nM	–
CC(C)(C)c1cc(C(C)(C)C)c2c(c1F)COP(=O)(OC[C@H]1O[C@@H](n3cc(I)c(=O)[nH]c3=O)C[C@@H]1O)O2 (single isomer, unassigned) [8 - fast, 5-Iodo-5′-O-[cyclo-3,5-di-(tert-butyl)-6-fluoroSaligenyl]-2′-deoxyuridine Monophosphate]	> 60000 nM	–
CC(C)(C)c1cc(C(C)(C)C)c2c(c1F)COP(=O)(OC[C@H]1O[C@@H](n3cc([125I])c(=O)[nH]c3=O)C[C@@H]1O)O2 (stereo partly drawn) [Compound 8b, 5-[^125I]-Iodo-5′-O-[cyclo-3,5-di-(tert-butyl)-6-fluoroSaligenyl]-2′-deoxyuridine Monophosphate]	–	clearance from blood and normal tissues ([1]; IV administration): very favorable blood clearance curve; major site of normal tissue uptake ([1]; biodistribution data): liver is the major site of the normal tissue uptake
CC(C)(C)c1cc(C(C)(C)C)c2c(c1F)COP(=O)(OC[C@H]1O[C@@H](n3cc(I)c(=O)[nH]c3=O)C[C@@H]1O)O2 (stereo partly drawn) [8 - slow, 5-Iodo-5′-O-[cyclo-3,5-di-(tert-butyl)-6-fluoroSaligenyl]-2′-deoxyuridine Monophosphate]	–	IC50 (human BChE; read-out: IC50): 50.1 nM
CC(C)(C)c1cc(C(C)(C)C)c2c(c1F)COP(=O)(OCC1OC(n3cc(I)c(=O)[nH]c3=O)CC1F)O2 (single isomer, unassigned) [24 - slow, 5-Iodo-5′-O-[cyclo-3,5-Di-(tert-butyl)-6-fluoroSaligenyl]-3′-fluoro-2′,3′-dideoxyuridine Monophosphate]	19.8 nM	–
O=c1[nH]c(=O)n(C2CC(O)C(COP3(=O)OCc4ccccc4O3)O2)cc1I (single isomer, unassigned) [6 - fast, 5-Iodo-5′-O-cycloSaligenyl-2′-deoxyuridine Monophosphate]	1280 nM	–
Cc1cccc2c1OP(=O)(OC[C@H]1O[C@@H](n3cc([125I])c(=O)[nH]c3=O)C[C@@H]1O)OC2 (stereo partly drawn) [Compound 7b, 5-[^125I]-Iodo-5′-O-cyclo(3-methylSaligenyl)-2′-deoxyuridine Monophosphate]	–	whole body retention, median (IP OVCAR-3 tumors): 1.25 % ID; whole body retention (IP OVCAR-3 tumors): 1.21 (0.12) % ID; reduction in solid tumor deposits as compared to ^125IUdR (IP OVCAR-3 tumors; diastereomeric mixtures IP, total average 0.58 mCi, 7 weeks after first dose): ~50%; tumor retention compared to ^125IUdR (IP OVCAR-3 tumors; necropsy 4 weeks after the boost dose): significantly higher compared to ^125IUdR
Cc1cccc2c1OP(=O)(OCC1OC(n3cc(I)c(=O)[nH]c3=O)CC1O)OC2 (single isomer, unassigned) [7 - fast, 5-Iodo-5′-O-cyclo(3-methylSaligenyl)-2′-deoxyuridine Monophosphate]	> 7000 nM	–
O=c1[nH]c(=O)n([C@H]2C[C@H](O)[C@@H](CO)O2)cc1[125I] [^125IUdR, 5-[^125I]-iodo-2′-deoxyuridine, reference compound]	–	whole body retention, median (IP OVCAR-3 tumors): 1.08 % ID; whole body retention (IP OVCAR-3 tumors): 0.97 (0.11) % ID
CC(C)(C)c1cc(C(C)(C)C)c2c(c1F)COP(=O)(OCC1OC(n3cc(I)c(=O)[nH]c3=O)CC1F)O2 (single isomer, unassigned) [24 - fast, 5-Iodo-5′-O-[cyclo-3,5-Di-(tert-butyl)-6-fluoroSaligenyl]-3′-fluoro-2′,3′-dideoxyuridine Monophosphate]	549 nM	–
Cc1cn(C2CC(F)C(COP3(=O)OCc4c(F)c(C(C)(C)C)cc(C(C)(C)C)c4O3)O2)c(=O)[nH]c1=O (single isomer, unassigned) [23 - fast, 5′-O-[cyclo-3,5-Di-(tert-butyl)-6-fluoroSaligenyl]-3′-deoxy-3′-fluorothymidine Monophosphate]	203 nM	–
Cc1cccc2c1OP(=O)(OCC1OC(n3cc(I)c(=O)[nH]c3=O)CC1O)OC2 (single isomer, unassigned) [7 - slow, 5-Iodo-5′-O-cyclo(3-methylSaligenyl)-2′-deoxyuridine Monophosphate]	61.2 nM	–
O=c1[nH]c(=O)n(C2CC(O)C(COP3(=O)OCc4ccccc4O3)O2)cc1I (single isomer, unassigned) [6 - slow, 5-Iodo-5′-O-cycloSaligenyl-2′-deoxyuridine Monophosphate]	9.2 nM	–
